Assay results as given in PubChem BioAssay (NCI).
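The concentration for 50% growth inhibition is given as GI50. TGI marks complete inhibition of growth.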

Tests used:
Assay in all cases: NCI tumour cell line growth inhibition, 384-well format
DU-145 prostate = test system: DU-145 prostate
IGROV1 ovarian = test system: IGROV1 ovarian
SR leukemia = test system: SR leukemia
NCI-H226 lung = test system: NCI-H226 lung
U251 glioblastoma = test system: U251 glioblastoma
KM12 colon = test system: KM12 colon
OVCAR-3 ovarian = test system: OVCAR-3 ovarian
HCT-116 colon = test system: HCT-116 colon
CAKI-1 renal = test system: CAKI-1 renal
A549 NSCLC = test system: A549 NSCLC
MCF7 breast = test system: MCF7 breast
SNB-75 CNS = test system: SNB-75 CNS
UACC-257 melanoma = test system: UACC-257 melanoma
NCI/ADR-RES ovarian = test system: NCI/ADR-RES ovarian
SK-MEL-5 melanoma = test system: SK-MEL-5 melanoma
TK-10 renal = test system: TK-10 renal
SF-295 CNS = test system: SF-295 CNS
HCT-15 colon = test system: HCT-15 colon
HL-60(TB) leukemia = test system: HL-60(TB) leukemia
SNB-19 CNS = test system: SNB-19 CNS
OVCAR-8 ovarian = test system: OVCAR-8 ovarian
HOP-62 NSCLC = test system: HOP-62 NSCLC
BT-549 breast = test system: BT-549 breast
EKVX NSCLC = test system: EKVX NSCLC
PC-3 prostate = test system: PC-3 prostate
NCI-H23 lung = test system: NCI-H23 lung
MALME-3M melanoma = test system: MALME-3M melanoma
MOLT-4 leukemia = test system: MOLT-4 leukemia
SF-539 CNS = test system: SF-539 CNS
LOX IMVI melanoma = test system: LOX IMVI melanoma
UACC-62 melanoma = test system: UACC-62 melanoma
A498 renal = test system: A498 renal
SN12C renal = test system: SN12C renal
RPMI-8226 leukemia = test system: RPMI-8226 leukemia
MDA-MB-231 breast = test system: MDA-MB-231 breast
HT29 colon = test system: HT29 colon
T-47D breast = test system: T-47D breast
HCC-2998 colon = test system: HCC-2998 colon
MDA-MB-435 melanoma = test system: MDA-MB-435 melanoma
M14 melanoma = test system: M14 melanoma
COLO 205 colon = test system: COLO 205 colon
NCI-H460 NSCLC = test system: NCI-H460 NSCLC
OVCAR-5 ovarian = test system: OVCAR-5 ovarian
SK-OV-3 ovarian = test system: SK-OV-3 ovarian
NCI-H322M lung = test system: NCI-H322M lung
ACHN renal = test system: ACHN renal
HS 578T breast = test system: HS 578T breast
NCI-H522 lung = test system: NCI-H522 lung
MDA-MB-468 breast = test system: MDA-MB-468 breast
OVCAR-4 ovarian = test system: OVCAR-4 ovarian
HOP-92 NSCLC = test system: HOP-92 NSCLC
SK-MEL-28 melanoma = test system: SK-MEL-28 melanoma
RXF 393 renal = test system: RXF 393 renal
SF-268 CNS = test system: SF-268 CNS

CC(C)c1cc(C(=O)N2Cc3ccc(CN4CCN(C)CC4)cc3C2)c(O)cc1O
GI50 (DU-145 prostate): 30.3 nM
TGI (DU-145 prostate): 88.7 nM
GI50 (IGROV1 ovarian): 37.7 nM
TGI (IGROV1 ovarian): 216 nM
GI50 (SR leukemia): 13.8 nM
TGI (SR leukemia): 36.8 nM
GI50 (NCI-H226 lung): 75.8 nM
TGI (NCI-H226 lung): 838 nM
GI50 (U251 glioblastoma): 34.3 nM
TGI (U251 glioblastoma): 97.3 nM
GI50 (KM12 colon): 37.1 nM
TGI (KM12 colon): 12500 nM
GI50 (OVCAR-3 ovarian): 34.3 nM
TGI (OVCAR-3 ovarian): 93.5 nM
GI50 (HCT-116 colon): 57.6 nM
TGI (HCT-116 colon): 11700 nM
GI50 (CAKI-1 renal): 342 nM
TGI (CAKI-1 renal): 17300 nM
GI50 (A549 NSCLC): 64.1 nM
TGI (A549 NSCLC): 16800 nM
GI50 (MCF7 breast): 37.9 nM
TGI (MCF7 breast): 11100 nM
GI50 (SNB-75 CNS): 52.5 nM
TGI (SNB-75 CNS): 11600 nM
GI50 (UACC-257 melanoma): 186 nM
TGI (UACC-257 melanoma): 5190 nM
GI50 (NCI/ADR-RES ovarian): 166 nM
TGI (NCI/ADR-RES ovarian): 515 nM
GI50 (SK-MEL-5 melanoma): 23.7 nM
TGI (SK-MEL-5 melanoma): 1330 nM
GI50 (TK-10 renal): 45 nM
TGI (TK-10 renal): 856 nM
GI50 (SF-295 CNS): 40.7 nM
TGI (SF-295 CNS): 256 nM
GI50 (HCT-15 colon): 32.2 nM
TGI (HCT-15 colon): 10200 nM
GI50 (HL-60(TB) leukemia): 21.8 nM
TGI (HL-60(TB) leukemia): 41.7 nM
GI50 (SNB-19 CNS): 76.4 nM
TGI (SNB-19 CNS): 710 nM
GI50 (OVCAR-8 ovarian): 37.9 nM
TGI (OVCAR-8 ovarian): 175 nM
GI50 (HOP-62 NSCLC): 47.4 nM
TGI (HOP-62 NSCLC): 357 nM
GI50 (BT-549 breast): 32.1 nM
TGI (BT-549 breast): 528 nM
GI50 (EKVX NSCLC): 46.1 nM
TGI (EKVX NSCLC): 8590 nM
GI50 (PC-3 prostate): 46.5 nM
TGI (PC-3 prostate): 319 nM
GI50 (NCI-H23 lung): 38.2 nM
TGI (NCI-H23 lung): 13300 nM
GI50 (MALME-3M melanoma): 61.5 nM
TGI (MALME-3M melanoma): 694 nM
GI50 (MOLT-4 leukemia): 19.4 nM
TGI (MOLT-4 leukemia): 35.7 nM
GI50 (SF-539 CNS): 40.4 nM
TGI (SF-539 CNS): 10400 nM
GI50 (LOX IMVI melanoma): 39.2 nM
TGI (LOX IMVI melanoma): 146 nM
GI50 (UACC-62 melanoma): 113 nM
TGI (UACC-62 melanoma): 1680 nM
GI50 (A498 renal): 82.2 nM
TGI (A498 renal): 11300 nM
GI50 (SN12C renal): 24.4 nM
TGI (SN12C renal): 125 nM
GI50 (RPMI-8226 leukemia): 40.3 nM
TGI (RPMI-8226 leukemia): 156 nM
GI50 (MDA-MB-231 breast): 142 nM
TGI (MDA-MB-231 breast): 775 nM
GI50 (HT29 colon): 40.5 nM
TGI (HT29 colon): 11300 nM
GI50 (T-47D breast): 172 nM
TGI (T-47D breast): 11600 nM
GI50 (HCC-2998 colon): 12.4 nM
TGI (HCC-2998 colon): 31.7 nM
GI50 (MDA-MB-435 melanoma): 35.3 nM
TGI (MDA-MB-435 melanoma): 10500 nM
GI50 (M14 melanoma): 47.9 nM
TGI (M14 melanoma): 2690 nM
GI50 (COLO 205 colon): 23.7 nM
TGI (COLO 205 colon): 62.9 nM
GI50 (NCI-H460 NSCLC): 17.9 nM
TGI (NCI-H460 NSCLC): 43.6 nM
GI50 (OVCAR-5 ovarian): 38.7 nM
TGI (OVCAR-5 ovarian): 186 nM
GI50 (SK-OV-3 ovarian): 84.3 nM
TGI (SK-OV-3 ovarian): 12100 nM
GI50 (NCI-H322M lung): 84.7 nM
TGI (NCI-H322M lung): 4760 nM
GI50 (ACHN renal): 59.4 nM
TGI (ACHN renal): 2840 nM
GI50 (HS 578T breast): 131 nM
TGI (HS 578T breast): 2330 nM
GI50 (NCI-H522 lung): 20.6 nM
TGI (NCI-H522 lung): 42.3 nM
GI50 (MDA-MB-468 breast): 37.1 nM
TGI (MDA-MB-468 breast): 158 nM
GI50 (OVCAR-4 ovarian): 33.2 nM
TGI (OVCAR-4 ovarian): 1700 nM
GI50 (HOP-92 NSCLC): 217 nM
TGI (HOP-92 NSCLC): 1600 nM
GI50 (SK-MEL-28 melanoma): 400 nM
TGI (SK-MEL-28 melanoma): 17100 nM
GI50 (RXF 393 renal): 33.8 nM
TGI (RXF 393 renal): 11300 nM
GI50 (SF-268 CNS): 71.1 nM
TGI (SF-268 CNS): 16200 nM
